Source: patent US20060204993A1, “Methods and compositions for modulating CHK2 pathways and methods for screening for same” (priority 2005, published 2006)
Residues, ends and D or L forms follow the SMILES beside them. *: point of attachment. Cbz = O=C(OCc1ccccc1)*; CH2F = FC*

Key:
[1] = system: DLD1-Chk2 cells; test: Apoptosis and mitosis markers (Annexin-V, Pancaspase, phospho-Histone H3) and Z-VAD rescue in tet-induced cells; format: cell-based, human; settings: DLD1-tet-Chk2#17 cells, +tet six days
Protocol: FIG. 2A is a graph showing the DNA contents of cells as measured by flow cytometry (upper panel) and the percentages of Annexin-V-positive cells and Pancaspase-positive cells determined by flow cytometric analysis (bottom panels). FIG. 2B is a photograph of fluorescent microscopy showing DLD1-tet-Chk2# 17 cells cultured in the presence or absence of tetracycline following staining with DePsipher Dye (Trevigen) and monitoring the intensity of the monomer ([…]) and aggregates ([…]) of DePsipher. FIG. 2C is a photograph of immunoblots showing DLD1-tet-Chk2 #17 cell lysates following tetracycline treatment. Lysates were prepared and subjected to immunoblotting with the antibodies indicated on the left. FIG. 2D is a series of graphs of flow cytometric analysis showing the DNA content, caspase activity and percentages of DLD1-tet-Chk2#17 cells undergoing apoptosis following treated with Z-VAD- or mock-treated (None) and cultured in the presence (+tet) or absence (−tet) of tetracycline for six days.
To investigate the effect of Chk2 expression on cell cycle progression, the cell cycle profiles of DLD1-Chk2 clones (#17 and #22) were analyzed after Chk2 induction by addition of tetracycline. […]

[2] = system: DLD1-Chk2 clones (#17 and #22); test: Cell cycle profile (DNA content by flow cytometry) after tetracycline induction of Chk2; format: cell-based, human

SMILES | rescue of Chk2-induced cell death [1] | cell population with G2/M DNA content ([2]; uninduced 20%) | cell population with sub-G1 DNA content ([2]; uninduced ~4%) [%] | cell population with S DNA content ([2]; uninduced ~25%) [%] | cell population with G1 DNA content ([2]; uninduced ~52%) [%]
CC(NC(=O)C(NC(=O)OCc1ccccc1)C(C)C)C(=O)NC(CC(=O)O)C(=O)CF (stereo not drawn) [Z-VAD] (Cbz-Val-Ala-Asp-CH2F; configuration not given here) | partially rescued |  |  |  | 
CN(C)[C@@H]1C(O)=C(C(N)=O)C(=O)[C@@]2(O)C(O)=C3C(=O)c4c(O)cccc4[C@@](C)(O)[C@H]3C[C@@H]12 [tetracycline] |  | 30-35% | ~40 | ~9 | ~25
